The experiment relates to MCP-1 induced THP-1 migration. Briefly: THP-1 trans-well migration assay, MCP-1 as chemoattractant. The format is cell-based, human. The settings on record: for % inhibition at 100 μM versus MCP-1, THP-1 migration: agent with the cells, n.s. = no statistically significant inhibition. Put shortly:
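5×10^4 THP-1 cells with serially diluted peptide in upper chamber, 5 µm filter, recombinant human chemokine 50 ng/ml (5.9 nM) in lower chamber. Incubated 4 h at 37 °C. Migrated cells counted by MTT staining, A595 read against a THP-1 standard curve.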

Read-outs that look alike come from different tables or passages of the source. Marks after values point to notes of the source that are not given here. Positions of bridges follow the written chain, without caps; N, C: chain ends. Non-standard residues stand in square brackets, D forms with d. Residues, ends and D or L forms follow the SMILES beside them. No end group written: not given here. A value given as a limit tells only on which side of the number the result lay.

`CC[C@@H](C)[C@H]1NC(=O)[C@@H](CCC(N)=O)NC(=O)[C@H](N)CSSC[C@H](C(N)=O)NC(=O)[C@@H](CC(C)C)NC(=O)[C@@H](CC(=O)O)NC(=O)[C@H]2CCCN2C(=O)[C@@H](CCCCN)NC(=O)[C@@H](CCC(N)=O)NC(=O)[C@@H](CCCCN)NC(=O)[C@@H](Cc2c[nH]c3ccccc23)NC1=O` (H-[dC][dQ][dI][dW][dK][dQ][dK][dP][dD][dL][dC]-NH2; disulfide 1-11; N-terminus assumed): the IC50 (read-out: MCP-1 inhibitory activity in the THP-1 transwell assay) was 5 to 100 nM.
For `C=CCCCCCCCCC(=O)N[C@H]1CCC(=O)NC1=O` [A-I (NR58.4), [3S]-3-(undec-10-enoylamino)piperidine-2,6-dione], the EC50 (listed as NR58.4 (A-I), read-out: ED50 versus MCP-1 induced chemotaxis of THP-1) is 2 nM.
As for `NCCCC[C@H](NC(=O)[C@H](CCC(N)=O)NC(=O)[C@@H](N)CCCCN)C(=O)O` [KQK], under “tripeptide at 100 μM, mean ± range of two experiments, dash = no statistically significant reduction in migration”, the “percentage inhibition of migration induced by MCP-1” value is recorded as 95 ± 8^b %.
The % inhibition is the relative decrease from the control value, in per cent. With EICADPKQKWVQ [peptide 3(1-12)[MCP-1]], the “% inhibition at 100 μM versus MCP-1, THP-1 migration” value is above 99% (100 μM) and 112% (100 μM, listed as Peptide 3 (SEQ ID NO: 1)). The “% inhibition of MCP-1 induced migration at 100 μM, peptide with the chemokine in the lower compartment” value (100 μM, lower compartment) is given as 17%. Also, for the setting “agent with the cells in the upper compartment, n.s. = no statistically significant inhibition (p > 0.05), read-out: ED50 versus MCP-1, inhibition of THP-1 migration”, the EC50 amounted to 8000 ± 1000 nM.
For “SYRRITSSKCPKEAV [peptide 2(1-15)[MCP-1]]”, the “% inhibition at 100 μM versus MCP-1, THP-1 migration” value reads like this: (100 μM, listed as Peptide 2 (SEQ ID NO: 3)) “n.s”; (100 μM, listed as Peptide 2[MCP-1]) 19%. Besides, the “ED50 versus MCP-1, inhibition of THP-1 migration” value (agent with the cells in the upper compartment, n.s. = no statistically significant inhibition (p > 0.05)) is on record as “n.s”. In addition, the “MCP-1 ED-50” value (ns = not significantly different from control) is on record as “ns”.

These data come from patent US7989466B2, “Methods to inhibit or augment an inflammatory response” (Cambridge Enterprise Limited, priority 1999, dated 2011).
